Patent US20240117303A1, “METHODS AND COMPOSITIONS FOR GENERATING HUMAN MIDBRAIN DOPAMINERGIC NEURONS FROM NEURAL PROGENITOR CELLS” (Trailhead Biosystems Inc., priority 2022, published 2024)
“Also recorded” adds a separate entry of the source.

Tested on: stage 1 neural stem cells
Experiment: HD-DoE 12-factor experiment for stage 2 recipe (first model, FIG. 5-7, 12)
Type: cell-based, human
Details: for factor contribution: positive impact
Text: To further guide the differentiation of midbrain-committed neural stem cells to neural progenitor cells at stage 2, we performed an additional HD-DoE experiment. We thereby obtained additional gene regulatory models that were used for preparation of differentiation protocol. The basis of this was a 12-factor HD-DoE experiment with focus on initiation of differentiation of cells toward midbrain neural progenitor cells for an additional 3 days after termination of stage 1 treatment. Here, we focused on expression of LMX1A and FOXA2 in neural progenitor cells with low to zero expression of GBX2. LMX1A had significant high expression level in the model with value of 47888. Therefore, we used optimization setting for this gene to identify the positive factors. The factors in this experiment included SC79, MK2206, ZM336372, PD0325901, CHIR99021, A 83-01, TTNPB, AGN193109, GW3965, SR9243, Purmorphamine and GSI-XX.
To assess the impact of elimination of each validated factor, we used dynamic profile analysis and compared the expression level of genes of interest in absence of each finalized factor while others are present.
In the stage 2 recipe, each of the six finalized factors were removed while the other five factors were present and the expression levels of FOXA2, LMX1A and GBX2 were assessed, compared to the levels in the presence of all factors. According to the first experiment model, the absence of TTNPB lead to a rise of GBX2 expression, while the value of FOXA2 and LMX1A reduced drastically from 10,000 to 0 and 30,000 to 15,000, respectively. The absence of A 83-01 reduced the expression of FOXA2 from 10,000 to 7000, however, as expected, the value of LMX1A increased from 30,000 to 40,000. […] According to the second experiment model, the absence of BMP7 and MK2206 both reduced the level of FOXA2 while increasing the value of LMX1A, with BMP7 as the main effector that led to 0 expression of FOXA2.

[1] = dynamic profile / model, 12 effectors

For `Cc1c[nH]c(-c2cnc(NCCNc3ccc(C#N)cn3)nc2-c2ccc(Cl)cc2Cl)n1` [CHIR99021], the “impact on expression of FOXA2” value [1] was “reduces”, the “impact on expression of LMX1A” value [1] was “positive effect; also recorded: positive impact” and the “impact on expression level of GBX2” value (dynamic profile, 12 effectors) was “increases”. It also gave a factor contribution (model optimized for LMX1A) of 8.3 and a factor contribution (model optimized for maximum expression of FOXA2) of 10.7.
